# Measurements published in patent publication US12459997B2, “Compounds and methods targeting interleukin-19” (Eli Lilly and Company, priority 2018, dated 2025).
# Test system: Ps0 patients
# Test: Ps0 study in anti-TNFα treatment groups: serum IL-19 and PASI
# Type: in vivo, human
# Conditions: for IL-19 serum levels (geometric mean) / % of patients with serum IL-19 concentration ≤ 21 pg/mL / % patients with serum IL-19 concentration ≤ 21 pg/mL achieving at least PASI 75 / % patients with serum IL-19 concentration ≤ 21 pg/mL not achieving at least PASI 75: 50 mg biweekly subcutaneous
# From the text: According to an exemplified embodiment, a sandwich ELISA assay for the sensitive detection of IL-19 is provided herein. According to an exemplified embodiment, a first IL-19 antibody (selected from Table 1, 2 or 3) is utilized as an IL-19 capture antibody and a second IL-19 antibody (selected from Table 1, 2 or 3) is utilized as an IL-19 reporter antibody. […] According to some embodiments, one milligram of the first IL-19 antibody (the capture antibody) is biotinylated using Pierce biotinylation kit (Cat #) and one milligram of the second IL-19 antibody (the reporter antibody) is labeled with ruthenium using MesoScale Discovery (MSD) kit for electrochemiluminescent (ECL) detection. According to such embodiment, labeled antibodies are evaluated using MALDI-TOF to ensure suitable labeling, and then diluted in 50% glycerol and stored at −20° C. prior to use.
# Streptavidin-coated 96-well MSD plates are washed three times with TBST (Tris buffered saline containing 10 mmol/L Tris pH 7.40, 150 mmol/L NaCl with 1 mL Tween 20/L) and then blocked with TBS-T plus 1% BSA for 1 hour at room temperature. Plates are again washed and wells are then incubated with biotinylated IL-19 capture antibody (1 mg/L) for 1 hour. Thereafter, plates are again washed prior to patient sample testing.
# During patient sample testing, a standard curve is generated using 50 μL of recombinant human IL-19 control standard (serially diluted IL-19 recombinant protein ranging from 100-0.0001 ng/L, and including a zero blank, in assay buffer of 50 mmol/L HEPES, pH 7.40, 150 mmol/L NaCl, 10 mL/L Triton X-100, 5 mmol/L EDTA, and 5 mmol/L EGTA). […] Patient samples (which, according to the present invention, may include blood, serum or plasma) are diluted 1:4 in assay buffer and added to respective wells. The plate is incubated overnight at 4° C. Following incubation, wells are aspirated and washed 3 times with TBST. Thereafter, 50 μL of ruthenium-labeled IL-19 detection antibody (0.5 mg/L) is added to the wells for a 1-hour incubation at room temperature. Following incubation, wells are aspirated and washed 3 times with TBST. Thereafter, 150 μl of 2×MSD read buffer is added. Ruthenium electrochemiluminescence in the wells is detected using a MSD Sector 6000 plate reader. Data is analyzed and IL-19 MSD immunoassay calibration curve fitting is performed using MesoScale Discovery software. SAS® software version 9.4 (PROC MIXED) is used for assessing treatment effects on IL-19 levels using a mixed effects model with an unstructured covariance matrix and log10 transformed IL-19 concentrations (SAS. Version 9.4 for UNIX; SAS Institute Inc.: Cary, N.C., 2016). Statistical analysis is generated with the ggplot and pROC packages using R version 3.3.3 statistical computing environment (www.R-project.org, Vienna, Austria, 2017).
# A study of IL-19 levels, in serum of 35 Ps0 patients that were complete responders when treated with the FDA approved TNFα antagonist, entanercept, is performed. Treatment groups of 50 mg of etanercept (n=35) administered biweekly or placebo are compared. Administration of both treatment groups is subcutaneous. […] IL-19 levels are assessed for prognostic value with PASI improvement at weeks 4 and 12. Serum IL-19 concentration levels are presented in Table 11; prognostic values at week 4 showing correlations of IL-19 serum levels and PASI in psoriasis patients (21 ng/L indicates the upper limit of the normal range of IL-19 in healthy subjects) is presented in Table 12; prognostic values at week 12 showing correlations of IL-19 serum levels and PASI in psoriasis patients (21 ng/L indicates the upper limit of the normal range of IL-19 in healthy subjects) is presented in Table 13.
substance,measurement,setting,value
etanercept,IL-19 serum levels (geometric mean),Week 0 (baseline),98.2 pg/mL
same,IL-19 serum levels (geometric mean),Week 1,42.3 pg/mL
same,% of patients with serum IL-19 concentration ≤ 21 pg/mL,week 4,37.9% (44/116)
same,% patients with serum IL-19 concentration ≤ 21 pg/mL achieving at least PASI 75,week 4,22.7% (10/44)
same,% patients with serum IL-19 concentration ≤ 21 pg/mL not achieving at least PASI 75,week 4,77.3% (34/44)
same,IL-19 serum levels (geometric mean),week 4,24.3 pg/mL
same,% of patients with serum IL-19 concentration ≤ 21 pg/mL,week 12,42.9% (69/161)
same,% patients with serum IL-19 concentration ≤ 21 pg/mL achieving at least PASI 75,week 12,49.3% (34/69)
same,% patients with serum IL-19 concentration ≤ 21 pg/mL not achieving at least PASI 75,week 12,50.7% (35/69)
same,IL-19 serum levels (geometric mean),week 12,14.2 pg/mL
same,median reduction in serum IL-19,after 1 week,greater than 40 pg/mL
same,median reduction in serum IL-19,at week 4,> 70 pg/mL
